Consider ten compounds from US9365506B2, “Compounds and compositions as TLR2 agonists” (NOVARTIS AG, priority 2010, dated 2016).

The test concerns the target human TLR2 (Homo sapiens, UniProt O60603). The test is described as follows: Reporter gene assay: HEK 293 cells stably transfected with human TLR2 and NF-kB-driven luciferase reporter. Conditions: for Emax: HEK293, 7 h, read-out: Hek-TLR2 (% Eff); for pEC50: Hek-TLR2 μM (EC50), HEK 293 stably transfected with human TLR2 and pNifty-Luciferase, 7 hours incubation, concentration giving 50% of maximal signal. (In a reporter assay the amount or activity of a reporter protein is the signal.)

pEC50: −log10 of the molar value.

Sequence of human TLR2 (O60603 21-784): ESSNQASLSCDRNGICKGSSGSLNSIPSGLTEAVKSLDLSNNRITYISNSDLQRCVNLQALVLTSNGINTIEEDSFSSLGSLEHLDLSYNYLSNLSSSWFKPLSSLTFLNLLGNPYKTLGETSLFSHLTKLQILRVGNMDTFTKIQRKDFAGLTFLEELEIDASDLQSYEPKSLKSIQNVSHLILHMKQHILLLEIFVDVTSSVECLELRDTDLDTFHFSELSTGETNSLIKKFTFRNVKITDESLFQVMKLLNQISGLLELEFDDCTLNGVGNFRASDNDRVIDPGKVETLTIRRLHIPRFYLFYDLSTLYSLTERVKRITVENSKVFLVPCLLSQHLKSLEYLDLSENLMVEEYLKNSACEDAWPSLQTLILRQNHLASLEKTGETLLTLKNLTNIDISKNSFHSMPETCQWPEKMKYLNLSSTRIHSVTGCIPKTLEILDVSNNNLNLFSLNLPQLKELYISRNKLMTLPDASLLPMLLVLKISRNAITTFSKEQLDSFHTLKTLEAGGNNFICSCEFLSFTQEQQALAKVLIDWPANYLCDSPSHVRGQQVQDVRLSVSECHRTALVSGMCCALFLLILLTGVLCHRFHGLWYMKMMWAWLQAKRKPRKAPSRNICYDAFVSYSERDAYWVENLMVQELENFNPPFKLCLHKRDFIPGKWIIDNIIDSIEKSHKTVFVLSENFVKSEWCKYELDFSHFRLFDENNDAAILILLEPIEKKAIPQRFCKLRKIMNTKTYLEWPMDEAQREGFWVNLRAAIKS
Experimental: As a control assay, normal Hek293 transfected with pNifty-Luc were used. […] Bright-Glo™ Luciferase assay buffer and substrate were supplied by Promega #E263B and #E264B (assay substrate and buffer respectively). 384 well clear-bottom plates were supplied by Greiner bio-one (#789163-G) and were custom bar-coded plates.
Cells were plated at 25,000 cells/well in 384-well plates in a final volume of 50 μl of media. Cells were allowed to adhere to the plates after overnight (18 hours) culture at 37° C. and 5% CO2. Serially diluted experimental and positive control compounds were then dispensed to each well and incubated for 7 hours at 37° C. and 5% CO2. Cells stimulated with DMSO alone also serve as negative controls. After the incubation, 30 μl of the pre-mix assay buffer and substrate buffer were added to each well according to manufacturer's instructions. The luminescence signal was read on a CLIPR machine with an integration time of 20 seconds per plate.

For orientation: pEC50 means the negative decadic logarithm of the EC50, by convention in mol/L. A lower pEC50 goes with a large EC50. For `CCCCCCCCCCCC(=O)OC[C@H](CSC[C@H](N)C(=O)NC(CC)COC)OC(=O)CCCCCCCCCCC` (stereo partly drawn) [Example 63, (2R)-3-(((2R)-2-amino-3-((1-methoxybutan-2-yl)amino)-3-oxopropyl)thio)propane-1,2-diyl didodecanoate], the Emax came out at 96% and the pEC50 was 7.14.
The corresponding values for `CCCCCCCCNC(=O)OC[C@H](CSC[C@H](N)C(=O)NCCOCCOCCOCCP(=O)(O)O)OC(=O)NCCCCCCCC` [Example 38, (14R,18R)-14-amino-18-(octylcarbamoyloxy)-13,21-dioxo-3,6,9,20-tetraoxa-16-thia-12,22-diazatriacontylphosphonic acid] are 107% and 5.15.
The corresponding values for `CCCCCCCCCCCCOC[C@H](CSC[C@H](N)C(=O)N[C@@H](CO)C(=O)NCCOCCOCCP(=O)(O)O)OCCCCCCCCCCCC` [Example 80, ((11S,14R,18R)-14-amino-18-(dodecyloxy)-11-(hydroxymethyl)-10,13-dioxo-3,6,20-trioxa-16-thia-9,12-diazadotriacontyl)phosphonic acid] are 52% and 5.72.
For `CCCCCCCCCCCC(=O)OC[C@H](CSC[C@H](N)C(=O)NCCOCCOCCN)OC(=O)CCCCCCCCCCC` [Example 54, (11R,15R)-1,11-diamino-10-oxo-3,6-dioxa-13-thia-9-azahexadecane-15,16-diyl didodecanoate], in that order: 101% and 5.89.
As for `CCCCCCCCCCCCCC(=O)OC[C@H](CSC[C@H](N)C(=O)NCCOCCOCCOCCP(=O)(O)O)OC(=O)CCCCCCCCCCCCC` [Example 25, (14R,18R)-14-amino-13,21-dioxo-18-(tetradecanoyloxy)-3,6,9,20-tetraoxa-16-thia-12-azatetratriacontylphosphonic acid], the Emax stood at 99% and the pEC50 is 8.20.
For `CCCCCCCCCCCC(=O)OC[C@H](CSC[C@H](N)C(=O)NCCOCCOS(=O)(=O)O)OC(=O)CCCCCCCCCCC` [Example 91, (R)-3-(((R)-2-amino-3-oxo-3-((2-(2-(sulfooxy)ethoxy)ethyl)amino)propyl)thio)propane-1,2-diyl didodecanoate], in that order: 120% and 7.21.
For `CCCCCCCC(=O)OC[C@H](CSC[C@H](N)C(=O)NCCOCCOCCOCCP(=O)(O)O)OC(=O)CCCCCCC` [Example 23, (14R,18R)-14-amino-18-(octanoyloxy)-13,21-dioxo-3,6,9,20-tetraoxa-16-thia-12-azaoctacosylphosphonic acid], in that order: 73% and 5.52.
The corresponding values for `CCCCCCCCCCCCCCCCOC[C@H](CSC[C@H](N)C(=O)NC1(CO)CC1)NC(=O)CCCCCCCCCCC` [Example 11, N—((R)-1-((R)-2-amino-3-(1-(hydroxymethyl)cyclopropylamino)-3-oxopropylthio)-3-(hexadecyloxy)propan-2-yl)dodecanamide] are 3.6% and less than 4.00.
As to `CCCCCCCCCCCC(=O)OC[C@H](CSC[C@H](N)C(=O)NCCc1cccc(O)c1)OC(=O)CCCCCCCCCCC` [Example 49, (R)-3-(((R)-2-amino-3-((3-hydroxyphenethyl)amino)-3-oxopropyl)thio)propane-1,2-diyl didodecanoate], the Emax turned out to be 51% and the pEC50 is less than 4.68.
For `CCCCCCCCCCCC(=O)OC[C@H](CSC[C@H](N)C(=O)NC(C)CCCN(CC)CC)OC(=O)CCCCCCCCCCC` (stereo partly drawn) [Example 69, (2R)-3-(((2R)-2-amino-3-((5-(diethylamino)pentan-2-yl)amino)-3-oxopropyl)thio)propane-1,2-diyl didodecanoate], in that order: 118% and 6.59.
